# Results: ChEMBL document CHEMBL3351914, “Finding the perfect spot for fluorine: improving potency up to 40-fold during a rational fluorine scan of a Bruton's Tyrosine Kinase (BTK) inhibitor scaffold” (Bioorg Med Chem Lett, 2015)
# pIC50: −log10 of the molar value.
# Biological target: Tyrosine-protein kinase BTK (Homo sapiens, UniProt Q06187)
# Test: Inhibition of BTK in human whole blood assessed as decrease in CD69 positive cells
# Assay type: cell-based
# Tyrosine-protein kinase BTK, sequence (Q06187 whole entry): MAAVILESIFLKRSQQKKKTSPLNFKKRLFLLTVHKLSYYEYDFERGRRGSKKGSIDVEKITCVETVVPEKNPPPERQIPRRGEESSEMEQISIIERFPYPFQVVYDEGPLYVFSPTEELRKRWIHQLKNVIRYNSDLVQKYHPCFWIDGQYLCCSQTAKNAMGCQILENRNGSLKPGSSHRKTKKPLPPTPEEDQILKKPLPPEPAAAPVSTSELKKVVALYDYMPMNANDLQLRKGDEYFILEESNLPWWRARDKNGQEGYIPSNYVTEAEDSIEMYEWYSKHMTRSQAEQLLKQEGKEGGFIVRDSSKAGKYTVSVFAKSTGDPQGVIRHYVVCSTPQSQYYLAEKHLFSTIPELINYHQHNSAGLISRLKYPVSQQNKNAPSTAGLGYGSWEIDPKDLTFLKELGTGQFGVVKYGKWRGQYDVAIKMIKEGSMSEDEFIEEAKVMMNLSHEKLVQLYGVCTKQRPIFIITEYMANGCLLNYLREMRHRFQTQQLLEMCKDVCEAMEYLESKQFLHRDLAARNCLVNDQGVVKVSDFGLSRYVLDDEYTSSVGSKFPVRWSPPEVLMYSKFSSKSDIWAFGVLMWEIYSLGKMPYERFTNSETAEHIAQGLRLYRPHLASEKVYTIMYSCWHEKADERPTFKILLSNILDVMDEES
row,pIC50,Structure (SMILES)
1,6.70,CN(C)c1ccc2c(c1)CCN(c1cc(F)cc(-c3cc(Nc4ccc(N5CCOCC5)cn4)c(=O)n(C)c3)c1CO)C2=O
2,6.72,CN(C)c1ccc2c(c1)CCN(c1cccc(-c3cc(Nc4ccc(N5CCOCC5)cn4)c(=O)n(C)c3)c1CO)C2=O
3,5.80,CCNC(=O)Nc1cc(-c2cccc(N3CCc4cc(N(C)C)ccc4C3=O)c2CO)cn(C)c1=O
4,6.55,CN(C)c1ccc2c(=O)n(-c3cccc(-c4cc(Nc5ccc(C(=O)N6CCOCC6)cn5)c(=O)n(C)c4)c3CO)ccc2c1
5,5.43,CNC(=O)Nc1cc(-c2ccc(F)c(N3CCc4cc(N(C)C)ccc4C3=O)c2CO)cn(C)c1=O
6,7.22,CN1CCN(c2ccc(Nc3cc(-c4cccc(N5CCc6cc(C(C)(C)C#N)ccc6C5=O)c4CO)cn(C)c3=O)nc2)CC1
